Experimental data taken from the METLIN SMRT retention time set (Domingo-Almenara et al. 2019).

Experiment: gradient 5% acetonitrile 3 min, to 50% in 2 min, to 85% in 15 min, held 3 min, 100 µL/min
Details: column: Zorbax Extend-C18 2.1 x 50 mm; eluents: water / acetonitrile, 0.1% formic acid
In short: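 Standards, all pure, were combined into mixtures of ~100 molecules and run at 100 μL/min on a Zorbax Extend-C18 column (2.1 × 50 mm, 1.8 μm) with water and acetonitrile, each containing 0.1% formic acid. A coupled quadrupole time-of-flight mass spectrometer operated in positive and negative ionization mode. Retention time values come from computationally picked adduct peaks, each inspected manually.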

RP-LC retention time | SMILES
796 s | c1ccc(CNc2nc(NCc3ccccc3)c3ccccc3n2)cc1
870 s | COc1ccccc1NC(=O)NC1CCN(c2ccc(C)c(C)c2)C1=O (configuration not stated)
623 s | O=C1NCCCCCN(Cc2ccc(F)cc2F)[C@H]2CCC[C@@H]12
1120 s | Cc1ccccc1-n1c(=O)c2sccc2n(Cc2nc(-c3ccc(Br)cc3)no2)c1=O
1010 s | O=C(Cn1cccc1-c1nc(-c2ccc(F)cc2)no1)Nc1ccc2c(c1)OCO2
1230 s | O=C(c1ccc2c(c1)N(Cc1ccccc1)C(=O)CO2)N1CCN(c2ccccn2)CC1
887 s | Cc1ccc(NC(=O)c2cnc3c(c2)c(=O)n(C)c(=O)n3-c2ccccc2)c(F)c1
858 s | Cc1nnc(-c2cc(NC(=O)c3ccccc3Br)c(C)s2)o1
766 s | OC(CN1CCCCC1)c1ccc(/C=C/c2ccc(Cl)cc2)cc1 (configuration not stated)
756 s | Cc1noc(C)c1S(=O)(=O)N1CCC(c2nnc(-c3ccco3)o2)CC1
1020 s | COc1ccc(-c2cc3c(=O)n(Cc4ccc(C)cc4C)ccn3n2)cc1OC
617 s | Cc1cc(C)c(S(=O)(=O)N2CCCC2c2nncn2Cc2ccncc2)c(C)c1 (configuration not stated)
545 s | CCc1nnc2cc(N3CCN(Cc4ccc(OC(C)C)cc4)CC3)cnn12
595 s | Cn1cc(CCN2CCC(C(=O)N3CCCCCC3)CC2)c2cccnc21
735 s | CCCn1c(=O)c(C)nc2cc(-c3noc(/C=C/c4ccc(OC)c(OC)c4)n3)ccc21
817 s | CC(C)(C)C(=O)Nc1cnc(N2CCCCCC2)nc1
1230 s | COc1ccc(-c2nnc(-c3ccc(Cl)c(S(=O)(=O)N4CCC(C)CC4)c3)o2)cc1
899 s | COc1ccc(C2(CNC(=O)C(=O)NCC3COc4ccccc4O3)CCOCC2)cc1 (configuration not stated)
860 s | O=C(COc1ccccc1F)NCC(O)(c1ccccc1)C(F)(F)F (configuration not stated)
688 s | CC(C)NC(=O)N(C1CC1)C1CCOC2(CCN(C(=O)C3CC3)CC2)C1 (configuration not stated)
604 s | CCOC(=O)CCNC(=O)N1CCCC(Cn2cnc3cccnc32)C1 (configuration not stated)
576 s | CS(=O)(=O)N1CC[C@H]2CN(Cc3cn[nH]c3-c3ccc(F)cc3)C[C@@]2(CF)C1
746 s | O=c1ccc(-c2nc(-c3cccc(Br)c3)no2)cn1Cc1ccncc1

RP-LC retention time | SMILES
913 s | COc1ccc(C(=O)C(C)OC(=O)C(C)N2C(=O)c3ccccc3C2=O)cc1 (configuration not stated)
1000 s | Cc1nn(-c2nc3ccccc3[nH]2)c2c1C(=O)CC(c1ccc(F)cc1)C2 (configuration not stated)
663 s | Cc1cccc2nnc(N3CCC(C(=O)N4CCC(C)CC4)CC3)n12
550 s | O=C(NCc1ccncc1)C1CCCN(c2nnc3ccc(C(F)(F)F)cn23)C1 (configuration not stated)
902 s | CCCN(C(=O)c1c(C)oc2nc(C)nc(N3CCOCC3)c12)c1ccc(OCC)cc1
822 s | COc1ccc(CCC(=O)Nc2cnn(-c3ncc(N4CCCC4)cn3)c2)cc1
735 s | CCOCCCNC(=O)N1CC(Oc2cccc(-c3nc(C)no3)c2)C1
579 s | Cc1ccc2c(Nc3cccc(C#N)c3)c(C(=O)N3CCCC3)cnc2n1
718 s | CC(C)(C)C(=O)N1CCC(C(=O)Nc2nc3ccc(S(C)(=O)=O)cc3s2)CC1
725 s | CSc1c(C)c(SC)n2ccncc12
589 s | Clc1cccc(CNc2cc(-n3ccnc3)ncn2)c1
950 s | O=C(Cn1nc(N2CCCC2)c2ccccc2c1=O)Nc1ccc(F)c(F)c1
812 s | CC(C)CN1C(=O)c2cccn2CC1C(=O)NC1CCCCCC1 (configuration not stated)
798 s | Cc1cccc(CNC(=O)c2sc(CC(=O)N3CCSCC3)nc2C)c1
661 s | CC(C)N1CCN(Cc2nc(-c3ccc(N(C)Cc4ccccc4)nc3)no2)CC1
871 s | COCCN1C(=O)c2ccccc2C(C(=O)Nc2ccc(OC)cc2OC)C12CCCC2 (configuration not stated)
696 s | Cc1noc(C)c1CNC(=O)Cc1ccccc1F
1020 s | Cc1nc2cc(-c3noc(CNC(=O)Cc4ccc(Cl)cc4)n3)ccc2n(C2CCCC2)c1=O
712 s | CC(C)n1c(N2CCCN(C(=O)c3ccccn3)CC2)cc(=O)n(C(C)C)c1=O
826 s | CCOc1ccccc1CNC(=O)C1CCCN(c2nnc3ccc(Cl)cn23)C1 (configuration not stated)
903 s | CCN1C(=O)C(C)(C(=O)NCc2cccc(Cl)c2)Oc2cccnc21 (configuration not stated)
1080 s | CC1CCCN(S(=O)(=O)c2ccc(-c3nnc(C4CCCC4)o3)o2)C1 (configuration not stated)
619 s | COc1ccc(-n2ncc3c(NC4CC4)ncnc32)cc1

RP-LC retention time | SMILES
724 s | COc1ccc(-c2nc3ccccn3c2NCc2ccccc2)cc1
641 s | COC(=O)c1cccc(NS(=O)(=O)c2cc3n(c2)CCCNC3=O)c1
724 s | CCCNC(=O)c1nnc(-c2ccc(S(=O)(=O)N3CCOCC3)cc2)o1
579 s | CCOC(=O)C1=C(CN2CCCCC2)NC(=O)NC1c1ccco1 (configuration not stated)
616 s | CC(C)Cn1c(=O)c(N2CCN(C(=O)NCc3ccco3)CC2)nc2ccncc21
904 s | Cc1cc(C)n(Cc2nc(-c3ccc(NC(=O)C(C)(C)C)cc3)oc2C)n1
625 s | O=C(c1ccco1)N1CCC(n2c(C3CCCC3)nc3cccnc32)C1 (configuration not stated)
701 s | O=C(CCc1cc(Cl)no1)N1CCC(c2nc(C3CCOCC3)no2)C1 (configuration not stated)
668 s | CS(=O)(=O)N1CCC(CC(=O)NC2CCCCC2)C1 (configuration not stated)
830 s | CN1CCCCCCN(C(=O)Cn2c(=O)oc3ccccc32)[C@H]2CCC[C@H]2C1=O
665 s | O=C(Cc1ccccc1Br)NC1CCN(c2cc(-c3ccccc3)[nH]n2)C1 (configuration not stated)
841 s | Cc1csc(-c2cc(S(=O)(=O)NC3CC3)cn2CC(=O)N2CCCCC2)n1
720 s | Cc1cc2c(cc1S(=O)(=O)N1CCCC1C(=O)Nc1ccc3c(c1)OCO3)OCC(=O)N2 (configuration not stated)
978 s | CCc1cccc(C)c1Nc1c(-c2ccc(Cl)cc2)nc2ncccn12
1020 s | Cc1ccccc1CN1C(=O)CN(S(=O)(=O)c2ccccc2)CC1(C)C(=O)NC1CCCCC1 (configuration not stated)
569 s | O=C(NCCCn1nc(-c2cccnc2)ccc1=O)c1ccc(F)cc1F
796 s | Cn1nc(C(=O)N2CCCC(C(=O)Nc3ccccc3)C2)c2c1CCN(C(=O)C1CCCCC1)C2 (configuration not stated)
929 s | CCCn1c(=O)sc2cc(S(=O)(=O)N3CCC(C(=O)Nc4ccc(CC)cc4)CC3)ccc21
1130 s | COc1ccc(CN2C=C(C(=O)OCc3nc(-c4cccc(OC)c4)no3)C(C)=NS2(=O)=O)cc1
995 s | Fc1ccc(-c2nnc(Cc3nc(-c4ccccc4Cl)no3)o2)cc1
919 s | O=C1[C@H]2CN(Cc3cccc(F)c3F)C[C@H]2C(=O)N1Cc1ccc2c(c1)OCO2
